Literature values as cited in patent US8618300B2, “Indolizine inhibitors of leukotriene production” (Boehringer Ingelheim International GmbH, priority 2008, dated 2013).

Experiments:
[1] = test system: biomarkers for myocardial infarction risk; conditions: clinical trials; cited from earlier work
human glomerulonephritis = conditions: clinical trial; cited from earlier work
[2] = test system: apoE/LDL-R double knockout mice; conditions: oral dosing, high-fat diet from 2 months of age to 6 months; cited from earlier work
[3] = test system: ApoE^−/−×CD4 dnTβRII mice; conditions: infusion, treated for four weeks after 12 weeks plaque growth; cited from earlier work

In the case of `O=C(O)[C@@H](c1ccc(OCc2ccc3ccccc3n2)cc1)C1CCCC1` [DG-031], the “effect on biomarkers for myocardial infarction risk” value [1] is given as “dose-dependent suppression of biomarkers”.
For `CC(C)(C)Sc1c(CC(C)(C)C(=O)O)n(Cc2ccc(Cl)cc2)c2ccc(OCc3ccc4ccccc4n3)cc12` [MK-591], the effect on proteinuria (human glomerulonephritis) is listed as “useful for reducing proteinuria”.
For `CC(C)c1ccc2c(c1)c(SC(C)(C)C)c(CC(C)(C)C(=O)O)n2Cc1ccc(Cl)cc1` [MK-886], the “decrease in plaque coverage in the aorta” value [2] is listed as 56%, the “decrease in plaque coverage in the aortic root” value [2] is listed as 43% and the “decrease in plaque area in the aortic root” value [3] is listed as ~40%.
